Among the data in patent US12692239B2, “Methods and compositions for targeting Tregs using CCR8 inhibitors” (Nanjing Immunophage Biomedical Co., Ltd., priority 2020, dated 2026) are IC50 values, retold here.

The test has as its target CCR8 (Homo sapiens, UniProt P51685). The experiment in a line: Tango assay (Tango-CCR8-Gal4-CHO-K1 cells, CCL1-stimulated, ONE-Glo luminescence). The note with it: Tango Assay IC50, Inhibition of CCR8 Tango cell in vitro.

Molecules are shown by their SMILES. Structures can show the parent of a compound that is named as a salt.

CCR8, sequence (P51685 whole entry, the tested form may be a part): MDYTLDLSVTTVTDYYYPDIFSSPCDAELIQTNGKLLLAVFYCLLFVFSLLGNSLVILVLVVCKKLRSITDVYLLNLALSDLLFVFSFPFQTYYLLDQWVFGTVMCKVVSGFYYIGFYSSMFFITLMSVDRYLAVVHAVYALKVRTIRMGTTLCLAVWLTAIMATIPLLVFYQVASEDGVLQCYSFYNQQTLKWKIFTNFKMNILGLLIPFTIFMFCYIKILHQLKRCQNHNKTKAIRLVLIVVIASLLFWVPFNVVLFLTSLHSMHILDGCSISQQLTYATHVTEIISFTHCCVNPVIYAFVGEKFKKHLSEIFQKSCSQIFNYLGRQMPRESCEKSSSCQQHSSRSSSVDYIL
Method: The Tango cell line was used to monitor antagonists-mediated receptor inactivation.
Tango cells (Tango-CCR8-Gal4-CHO-K1 cells constructed by Genomeditech) were passaged in complete medium (F12K, 10% FBS, 1% penicillin-streptomycin, 4 g/ml puromycin, 4 g/ml blasticidin and 100 g/ml hygromycin) in incubator (37° C., 5% CO2).
Twenty-four hours before the seed, cells were cultured in 10 or 15 cm dish at a density of 30% confluence in culture medium (F12K, 10% FBS, 1% penicillin-streptomycin).
Cells were suspended in starving medium (F12K, 1% FBS, 1% penicillin-streptomycin) before being seeded into black/clear 96 wells (1×10^4 cells/70 μl/well) and incubated for 6 hours (37° C., 5% CO2). Different concentration of compound, dissolved in DMSO, was into the 96-well plates, with 50 μl in each well, and incubation continued for 1 hour at 37° C.
After the incubation, the medium was removed and the 96-well plate was put in −80° C. freezer for an hour or longer. The plate and the ONE-Glo reagent (Promega, Catalog Number: E6110) which was frozen in −80° C., were taken out and rewarmed to room temperature. […] After incubating for 10 minutes at room temperature, the plate was read using microplate luminescence reader at 560 nm.
The microplate reader records luminescence in relative luminescence units (RLU).

On to `Cc1ccccc1C(=O)Nc1c(C)cc(S(=O)(=O)N[C@H](C)C2CCNCC2)cc1Cl` [Compound 180A, (R)-N-(2-chloro-6-methyl-4-(N-(1-(piperidin-4-yl)ethyl)sulfamoyl)phenyl)-2-methylbenzamide hydrochloride], for which half-maximal inhibition (IC50) was put at 9 nM.
